Data on 17 compounds can be found in patent publication US10105357B2, “Indication of antibiotic drugs for preparation of cancer inhibition pharmaceutical composition” (LAUNX BIOMEDICAL CO., LTD., priority 2014, dated 2018).

The test system of test [1] is C-33A (Cervical carcinoma). Description: Cell viability analysis, cervical cancer C-33A. In kind it is cell-based, human. The note with it: Homo sapiens, 72 h, read-out: The results of antibiotic drug inhibiting cancer cell lines (cell viability analysis), C-33A.
Test [2] deals with HepG2 (Hepatocellular Carcinoma). The test is described as follows: Cell viability analysis, hepatic cancer HepG2. Type of test: cell-based, human. The note with it: Homo sapiens, HepG2, 72 h.
Test [3] concerns HCT116 (p53+) (Colorectal Carcinoma). Description: cells. The note with it: Homo sapiens, HCT-116, 72 h, read-out: cell viability (survival rate), HCT116.
Where [4] appears, read: read-out: The results of antibiotic drug inhibiting cancer cell lines (cell viability analysis), HepG2, HepG2, repeated experiment.
[5] abbreviates: read-out: cell viability (survival rate), HepG2, drug 10 μM, 72 hours, WST-1, OD450 nm.
The mark [6] stands for this setting: HepG2, repeated experiment, read-out: The results of antibiotic drug inhibiting cancer cell lines (cell viability analysis), HepG2.
Setting [7] is: drug 10 μM, 72 hours, WST-1, OD450 nm, read-out: cell viability (survival rate), HepG2.

Structures can show the parent of a compound that is named as a salt. Where two headings read alike, the source gives them in different places.

For `CC(C)(C)C(=O)OCOP(=O)(COCCn1cnc2c(N)ncnc21)OCOC(=O)C(C)(C)C` [Adefovir Dipivoxil (Preveon, Hepsera), Adefovir Dipivoxil], the values for the viability at 10 µM in test [1] (C-33-A), in test [2] (setting [4]) and in test [2] (setting [5]) were 68%, 80.1% and 95.5%, respectively.
As to `CC(NC(C)(C)C)C(=O)c1cccc(Cl)c1` (stereo not drawn) [Amfebutamone (Bupropion), Amfebutamone], the viability (in general, a read-out of living cells in per cent, often relative to untreated cells) at 10 µM in test [1] (C-33-A) turned out to be 107%; in test [2] (setting [4]) it was 92.3%; in test [2] (setting [5]), 85.1%.
As to `CN(C)CCC=C1c2ccccc2CCc2ccccc21` [Amitriptyline HCl], the viability at 10 µM amounted to 100% in test [1] (C-33A, repeated experiment); 106% in test [2] (setting [6]); 106% in test [2] (setting [7]).
As to `Cc1ccc2c(Cl)cc(Cl)c(O)c2n1` [Chlorquinaldol], the viability at 10 µM in test [1] (C-33A, repeated experiment) was determined as 47.5%; in test [2] (setting [6]), 82%; in test [2] (setting [7]), 82.3%.
As to `CN(C)[C@@H]1C(O)=C(C(N)=O)C(=O)[C@@]2(O)C(O)=C3C(=O)c4c(O)ccc(Cl)c4[C@@](C)(O)[C@H]3C[C@@H]12` [Chlortetracycline HCl], the viability at 10 µM in test [1] (C-33-A) is 88%; in test [2] (setting [4]), 113%; in test [2] (setting [5]), 75%.
In the case of `CC(C)/N=c1\cc2n(-c3ccc(Cl)cc3)c3ccccc3nc-2cc1Nc1ccc(Cl)cc1` [Clofazimine], the viability at 10 µM in test [1] (C-33A, repeated experiment) amounted to 111%; in test [2] (setting [6]) it was 90.4%; in test [2] (setting [7]), 82.2%.
Consider `CC(C)(C)CC(C)(C)c1ccc(O)c(Cc2ccc(Cl)cc2Cl)c1` [Clofoctol], for which the viability at 10 µM in test [3] came out at 61%; in test [1] (C-33A, repeated experiment), 117%; in test [2] (setting [6]), 114%; in test [2] (setting [7]), 77.9%.
As to `CCc1cc2c(cc1CC)CC(NC[C@H](O)c1ccc(O)c3[nH]c(=O)ccc13)C2` [Indacaterol Maleate], the viability at 10 µM was 94.3% in test [1] (C-33A, repeated experiment); 84.4% in test [2] (setting [6]); 81.2% in test [2] (setting [7]).
For `Cc1ncc([N+](=O)[O-])n1CCO` [Metronidazole (Flagyl), Metronidazole], the viability at 10 µM is 114% in test [1] (C-33-A), 94.1% in test [2] (setting [4]) and 105% in test [2] (setting [5]).
In the case of `Clc1ccc(COC(Cn2ccnc2)c2ccc(Cl)cc2Cl)c(Cl)c1` (stereo not drawn) [Miconazole nitrate], the figures for the viability at 10 µM in test [1] (C-33-A), in test [2] (setting [4]) and in test [2] (setting [5]) were 117%, 108% and 104%, respectively.
Turning to `COc1c(C)c2c(c(O)c1C/C=C(\C)CCC(=O)O)C(=O)OC2` [Mycophenolic (Mycophenolate), Mycophenolic], the viability at 10 µM in test [1] (C-33A, repeated experiment) worked out at 51.8%; in test [2] (setting [6]) it was 62.1%; in test [2] (setting [7]) it was 72.9%.
The corresponding values for `NC(=O)N/N=C/c1ccc([N+](=O)[O-])o1` [Nitrofurazone (Nitrofural), Nitrofurazone] are 83.2%, 95.4% and 82.4%.
As to `CC[C@@H]([C@H](C)O)n1ncn(-c2ccc(N3CCN(c4ccc(OC[C@@H]5CO[C@@](Cn6cncn6)(c6ccc(F)cc6F)C5)cc4)CC3)cc2)c1=O` [Posaconazole], the viability at 10 µM in test [1] (C-33A, repeated experiment) came to 35.5%; in test [2] (setting [6]), 57.8%; in test [2] (setting [7]), 87.2%.
Turning to `COc1cc(NC(C)CCCN)c2ncccc2c1` (stereo not drawn) [Primaquine Diphosphate], the viability at 10 µM in test [3] is 69.5%; in test [1] (C-33-A), 96.8%; in test [2] (setting [4]), 81%; in test [2] (setting [5]), 81.4%.
Take `CN(C)[C@@H]1C(O)=C(C(N)=O)C(=O)[C@@]2(O)C(O)=C3C(=O)c4c(O)cccc4[C@@](C)(O)[C@H]3C[C@@H]12` [Tetracycline HCl]: the viability at 10 µM in test [1] (C-33-A) came to 103%; in test [2] (setting [4]), 106%; in test [2] (setting [5]) it was 74.1%.
As for `CCCCCCCCCCCCCCCC[N+](C)(C)CCN(Cc1ccc(OC)cc1)c1ncccn1` [Thonzonium Bromide], the viability at 10 µM in test [3] amounted to 32.9%; in test [1] (C-33A, repeated experiment), 32.5%; in test [2] (setting [6]) it was 47.7%; in test [2] (setting [7]) it was 45.1%.
Consider `Clc1ccc(C(Cn2ccnc2)OCc2ccsc2Cl)c(Cl)c1` (stereo not drawn) [Tioconazole], for which the viability at 10 µM in test [1] (C-33-A) stood at 114%; in test [2] (setting [4]), 109%; in test [2] (setting [5]), 100%.
